According to ChEMBL document CHEMBL3351331, “Novel Disubstituted Pyrimidines as Inhibitors of Bruton's Tyrosine Kinase” (ACS Med Chem Lett, 2015):

Target: Tyrosine-protein kinase BTK (Homo sapiens, UniProt Q06187)
Experiment: Inhibition of BTK (unknown origin) by Omnia continuous read kinase assay

Sequence of Tyrosine-protein kinase BTK (Q06187 whole entry): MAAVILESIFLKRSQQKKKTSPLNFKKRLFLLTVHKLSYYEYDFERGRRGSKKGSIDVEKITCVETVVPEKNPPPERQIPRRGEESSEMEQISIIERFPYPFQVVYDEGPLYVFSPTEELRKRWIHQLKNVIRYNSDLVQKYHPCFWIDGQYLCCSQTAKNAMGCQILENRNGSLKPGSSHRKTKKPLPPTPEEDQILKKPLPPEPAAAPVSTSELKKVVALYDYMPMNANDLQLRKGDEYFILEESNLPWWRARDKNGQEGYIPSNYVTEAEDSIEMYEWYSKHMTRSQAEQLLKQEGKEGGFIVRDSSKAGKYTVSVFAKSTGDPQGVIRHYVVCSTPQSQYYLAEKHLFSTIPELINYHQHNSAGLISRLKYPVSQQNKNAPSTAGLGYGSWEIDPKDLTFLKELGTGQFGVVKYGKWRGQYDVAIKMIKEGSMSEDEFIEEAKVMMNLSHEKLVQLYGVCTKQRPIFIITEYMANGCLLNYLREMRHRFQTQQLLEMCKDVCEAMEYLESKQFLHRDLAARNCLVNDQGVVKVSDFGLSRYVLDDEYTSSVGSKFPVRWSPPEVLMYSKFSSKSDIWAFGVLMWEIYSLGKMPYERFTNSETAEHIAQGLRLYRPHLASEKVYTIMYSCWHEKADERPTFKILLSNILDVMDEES

Row | IC50 [nM] | Compound
1 | < 10 | C=CC(=O)Nc1cccc(Nc2nc(Nc3ccc(OCCO)cc3)ncc2F)c1
2 | < 10 | C=CC(=O)Nc1cccc(Nc2nc(Nc3ccc(O)cc3)ncc2F)c1
3 | 101 | COCCOc1ccc(Nc2ncc(F)c(Nc3cccc(NC(=O)C(O)CO)c3)n2)cc1 (stereo unspecified)
4 | < 10 | COCCOc1ccc(Nc2ncc(F)c(Nc3cccc(NC(=O)C4CO4)c3)n2)cc1 (stereo unspecified)
5 | < 10 | C=CC(=O)Nc1cccc(N(C)c2nc(Nc3ccc(OCCO)cc3)ncc2F)c1
6 | 101 | C=CC(=O)Nc1cccc(Nc2nc(N(C)c3ccc(OCCO)cc3)ncc2F)c1
